These results are taken from PMC12385147, “Discovery of Novel 2-Substituted Aniline Pyrimidine Based Derivatives as Potent Mer/c-Met Dual Inhibitors with Improvement Bioavailability” (Biomolecules, 2025).

Bounds are passed on as bounds.

The target of series [1] is T1, Mer kinase (Homo sapiens, UniProt Q12866).
T1 construct: purchased Invitrogen (Shanghai, China)
T1 sequence (Q12866 21-999): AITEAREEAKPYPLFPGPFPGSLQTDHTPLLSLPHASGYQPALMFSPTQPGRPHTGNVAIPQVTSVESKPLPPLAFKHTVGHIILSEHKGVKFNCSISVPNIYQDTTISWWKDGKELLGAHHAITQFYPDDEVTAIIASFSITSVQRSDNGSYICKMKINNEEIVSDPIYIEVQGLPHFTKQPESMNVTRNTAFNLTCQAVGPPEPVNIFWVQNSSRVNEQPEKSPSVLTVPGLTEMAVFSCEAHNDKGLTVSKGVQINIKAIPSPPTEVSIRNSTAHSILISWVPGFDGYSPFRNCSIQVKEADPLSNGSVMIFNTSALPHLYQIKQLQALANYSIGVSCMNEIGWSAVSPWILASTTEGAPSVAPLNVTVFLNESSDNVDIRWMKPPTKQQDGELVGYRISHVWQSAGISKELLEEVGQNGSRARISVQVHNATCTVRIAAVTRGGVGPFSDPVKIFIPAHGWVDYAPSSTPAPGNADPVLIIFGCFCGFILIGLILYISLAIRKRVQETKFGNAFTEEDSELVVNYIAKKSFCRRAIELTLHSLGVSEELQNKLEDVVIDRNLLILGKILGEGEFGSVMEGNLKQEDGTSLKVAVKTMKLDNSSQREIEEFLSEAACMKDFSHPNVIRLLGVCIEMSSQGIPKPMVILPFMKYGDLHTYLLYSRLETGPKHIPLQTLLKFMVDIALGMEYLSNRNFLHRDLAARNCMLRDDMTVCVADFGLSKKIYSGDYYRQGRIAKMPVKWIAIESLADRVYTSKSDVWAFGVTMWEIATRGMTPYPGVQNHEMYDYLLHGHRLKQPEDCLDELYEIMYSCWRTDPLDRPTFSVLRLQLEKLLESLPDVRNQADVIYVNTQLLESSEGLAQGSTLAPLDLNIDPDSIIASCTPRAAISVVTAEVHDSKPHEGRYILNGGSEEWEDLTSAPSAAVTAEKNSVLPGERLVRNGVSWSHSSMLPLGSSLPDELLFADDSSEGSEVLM
Description: Mer kinase inhibition assay (TK-Sub-Biotin / cryptate detection). It counts as biochemical. To be noted: for IC50: means from three independent experiments.

For series [2], the target named is T2, c-Met kinase (Homo sapiens, UniProt P08581).
T2 construct: purchased Invitrogen (Shanghai, China)
Description: c-Met kinase inhibition assay (TK-Sub-Biotin / cryptate detection). In kind it is biochemical. To be noted: for IC50: means from three independent experiments.

A short description of series [3]: Liver microsome stability assay. In kind it is in vitro ADME, human. The conditions noted are these: human, liver microsomes, pH 7.4, human liver microsomes; for microsomal CLint: read-out: CL (intrinsic clearance). A general note: Liver microsomes are vesicles of endoplasmic reticulum, rich in cytochrome P450 enzymes.
Series [4] can be described thus: Plasma protein binding, equilibrium dialysis, rat plasma. The conditions noted are these: 1 μM. In kind it is in vitro ADME. In general terms: In equilibrium dialysis free small molecules cross a membrane that holds back macromolecules.
For series [5] the following is noted: cited from earlier work.

T2 sequence (P08581 25-1390): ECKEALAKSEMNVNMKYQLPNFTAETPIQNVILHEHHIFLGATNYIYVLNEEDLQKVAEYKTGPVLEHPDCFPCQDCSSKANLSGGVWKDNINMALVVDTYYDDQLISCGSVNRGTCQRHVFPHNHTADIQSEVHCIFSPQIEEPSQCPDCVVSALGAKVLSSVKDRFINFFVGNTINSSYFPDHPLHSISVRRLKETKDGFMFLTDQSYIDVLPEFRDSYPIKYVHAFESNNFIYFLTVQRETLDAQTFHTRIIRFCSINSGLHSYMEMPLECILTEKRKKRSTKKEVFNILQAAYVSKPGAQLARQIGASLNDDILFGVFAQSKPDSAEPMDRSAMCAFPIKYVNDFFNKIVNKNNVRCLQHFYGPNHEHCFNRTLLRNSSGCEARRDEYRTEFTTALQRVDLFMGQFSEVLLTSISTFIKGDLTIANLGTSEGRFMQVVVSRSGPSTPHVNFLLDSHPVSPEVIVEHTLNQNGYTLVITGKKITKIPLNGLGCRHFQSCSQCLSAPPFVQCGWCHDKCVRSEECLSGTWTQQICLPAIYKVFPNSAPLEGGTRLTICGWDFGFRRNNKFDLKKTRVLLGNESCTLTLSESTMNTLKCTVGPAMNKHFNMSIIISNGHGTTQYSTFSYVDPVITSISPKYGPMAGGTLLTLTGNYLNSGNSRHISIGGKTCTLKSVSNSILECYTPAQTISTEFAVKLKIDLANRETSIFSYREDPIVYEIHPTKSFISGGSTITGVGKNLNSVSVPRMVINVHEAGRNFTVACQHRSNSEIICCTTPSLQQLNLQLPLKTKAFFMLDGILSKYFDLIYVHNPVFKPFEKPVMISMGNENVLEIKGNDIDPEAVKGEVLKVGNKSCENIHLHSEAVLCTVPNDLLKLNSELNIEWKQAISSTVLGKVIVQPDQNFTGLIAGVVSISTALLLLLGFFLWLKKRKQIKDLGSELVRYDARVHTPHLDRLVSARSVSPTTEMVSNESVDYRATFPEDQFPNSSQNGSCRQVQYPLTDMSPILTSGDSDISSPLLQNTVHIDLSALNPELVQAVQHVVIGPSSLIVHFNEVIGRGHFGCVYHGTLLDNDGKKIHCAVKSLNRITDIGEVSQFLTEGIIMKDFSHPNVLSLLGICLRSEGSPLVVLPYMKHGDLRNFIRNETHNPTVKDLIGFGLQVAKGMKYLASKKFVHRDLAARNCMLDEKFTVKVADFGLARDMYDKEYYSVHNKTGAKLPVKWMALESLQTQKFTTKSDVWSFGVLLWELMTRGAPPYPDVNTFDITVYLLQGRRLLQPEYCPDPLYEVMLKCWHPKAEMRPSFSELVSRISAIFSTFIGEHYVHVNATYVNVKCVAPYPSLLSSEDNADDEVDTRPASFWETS

Broadly, the IC50 is the point on the concentration scale where inhibition reaches its midpoint. Low readings indicate greater potency, high ones weaker potency. `O=C(NC1CCCNC1)c1ccc(Nc2nccc(Oc3ccc(NC(=O)C4(C(=O)Nc5ccc(F)cc5)CC4)cc3)n2)cc1` (stereo not drawn) [compound 13g, N-(4-fluorophenyl)-N-(4-((2-((4-(piperidin-3-ylcarbamoyl)phenyl)amino)pyrimidin-4-yl)oxy)phenyl)cyclopropane-1,1-dicarboxamide]: the IC50 in series [1] and in series [2] was > 1000 nM in each case.

The term half-life denotes the time needed for the level to fall by half in the phase considered. High values mean slow loss, low ones fast loss. Consider `CN(C)CCNCC(=O)Nc1ccc(Nc2nccc(Oc3ccc(NC(=O)C4(C(=O)Nc5ccc(F)cc5)CC4)cc3)n2)cc1` [compound 13j], for which the IC50 was 13.1 ± 2.1 nM in series [1] and 48.6 ± 11.2 nM in series [2]. The same molecule showed a half-life in series [3] of 27.9 min. In addition, the microsomal CLint in series [3] came to 152 µL/min/mg.

For the molecule `O=C(Nc1ccc(F)cc1)C1(C(=O)Nc2ccc(Oc3ccnc(Nc4cn[nH]c4)n3)cc2)CC1` [compound 13c, N-(4-((2-((1H-pyrazol-4-yl)amino)pyrimidin-4-yl)oxy)phenyl)-N-(4-fluorophenyl)cyclopropane-1,1-dicarboxamide], the IC50 is 110 ± 15.7 nM in series [1] and 48.9 ± 6.4 nM in series [2].

For the molecule `COCCNc1cccc(Nc2nccc(Oc3ccc(NC(=O)c4c(C)n(C)n(-c5ccccc5)c4=O)cc3)n2)c1` [compound 17b, N-(4-((2-((3-((2-methoxyethyl)amino)phenyl)amino)pyrimidin-4-yl)oxy)phenyl)-1,5-dimethyl-3-oxo-2-phenyl-2,3-dihydro-1H-pyrazole-4-carboxamide], the IC50 in series [1] stood at 12.1 ± 1.3 nM; in series [2], 101 ± 18.5 nM.

`CN1CCN(C(=O)c2ccc(Nc3nccc(Oc4ccc(NC(=O)C5(C(=O)Nc6ccc(F)cc6)CC5)cc4)n3)cc2)CC1` [compound 13h, N-(4-fluorophenyl)-N-(4-((2-((4-(4-methylpiperazine-1-carbonyl)phenyl)amino)pyrimidin-4-yl)oxy)phenyl)cyclopropane-1,1-dicarboxamide]: the concentration for half-maximal inhibition (IC50) worked out at 72 ± 8.9 nM in series [1] and 41.6 ± 8.5 nM in series [2].

Turning to `O=C(NC1CCCNC1)c1cccc(Nc2nccc(Oc3ccc(NC(=O)C4(C(=O)Nc5ccc(F)cc5)CC4)cc3)n2)c1` (stereo not drawn) [compound 13f, N-(4-fluorophenyl)-N-(4-((2-((3-(piperidin-3-ylcarbamoyl)phenyl)amino)pyrimidin-4-yl)oxy)phenyl)cyclopropane-1,1-dicarboxamide], the IC50 in series [1] and in series [2] was > 1000 nM throughout.

Consider `CC(=O)CC(c1ccccc1)c1c(O)c2ccccc2oc1=O` (stereo not drawn) [Warfarin, reference compound], for which the “Mean Fb” value in series [4] was found to be 99.0%.

As for `Cc1c(C(=O)Nc2ccc(Oc3ccnc(Nc4ccc(NC(=O)CN5CCN(C)CC5)nc4)n3)cc2)c(=O)n(-c2ccccc2)n1C` [compound 17g, 1,5-dimethyl-N-(4-((2-((6-(2-(4-methylpiperazin-1-yl)acetamido)pyridin-3-yl)amino)pyrimidin-4-yl)oxy)phenyl)-3-oxo-2-phenyl-2,3-dihydro-1H-pyrazole-4-carboxamide], the values for the IC50 in series [1] and in series [2] were > 1000 nM and 140 ± 18.9 nM, respectively.

`CCN(CC)CCNCC(=O)Nc1ccc(Nc2nccc(Oc3ccc(NC(=O)C4(C(=O)Nc5ccc(F)cc5)CC4)cc3)n2)cc1` [compound 13i, N-(4-((2-((4-(2-((2-(diethylamino)ethyl)amino)acetamido)phenyl)amino)pyrimidin-4-yl)oxy)phenyl)-N-(4-fluorophenyl)cyclopropane-1,1-dicarboxamide]: the IC50 in series [1] was found to be 95.3 ± 20.1 nM; in series [2] it was 88.6 ± 13.9 nM.

With `CN1CCC(Oc2ccc(Nc3nccc(Oc4ccc(NC(=O)C5(C(=O)Nc6ccc(F)cc6)CC5)cc4)n3)cc2)CC1` [compound 13a, N-(4-fluorophenyl)-N-(4-((2-((4-((1-methylpiperidin-4-yl)oxy)phenyl)amino)pyrimidin-4-yl)oxy)phenyl)cyclopropane-1,1-dicarboxamide], the IC50 is 21.7 ± 5.8 nM in series [1] and 63.3 ± 9.1 nM in series [2].

`Cc1c(C(=O)Nc2ccc(Oc3ccnc(Nc4ccc(C(=O)N5CCN(C)CC5)cc4)n3)cc2)c(=O)n(-c2ccccc2)n1C` [compound 17d, 1,5-dimethyl-N-(4-((2-((4-(4-methylpiperazine-1-carbonyl)phenyl)amino)pyrimidin-4-yl)oxy)phenyl)-3-oxo-2-phenyl-2,3-dihydro-1H-pyrazole-4-carboxamide]: the IC50 came to 84.1 ± 13.9 nM in series [1] and 137 ± 34.3 nM in series [2].

Take `Cc1c(C(=O)Nc2ccc(Oc3ccnc(Nc4ccc(OC5CCN(C)CC5)cc4)n3)cc2)c(=O)n(-c2ccccc2)n1C` [compound 17a, 1,5-dimethyl-N-(4-((2-((4-((1-methylpiperidin-4-yl)oxy)phenyl)amino)pyrimidin-4-yl)oxy)phenyl)-3-oxo-2-phenyl-2,3-dihydro-1H-pyrazole-4-carboxamide]: the IC50 in series [1] stood at 26.2 ± 7.1 nM; in series [2] it was 233 ± 25.4 nM.

For `Cc1c(C(=O)Nc2ccc(Oc3ccnc(Nc4ccc(NC(=O)C(C)N5CCN(C)CC5)cc4)n3)cc2)c(=O)n(-c2ccccc2)n1C` (stereo not drawn) [compound 17h, 1,5-dimethyl-N-(4-((2-((4-(2-(4-methylpiperazin-1-yl)propanamido)phenyl)amino)pyrimidin-4-yl)oxy)phenyl)-3-oxo-2-phenyl-2,3-dihydro-1H-pyrazole-4-carboxamide], the figures for the 50% inhibitory concentration (IC50) in series [1] and in series [2] were 11.9 ± 1.7 nM and 45 ± 6.8 nM, respectively.

Turning to `CC(=O)N1CCN(c2cccc(Nc3nccc(Oc4ccc(NC(=O)c5c(C)n(C)n(-c6ccccc6)c5=O)cc4)n3)c2)CC1` [compound 17f, N-(4-((2-((3-(4-acetylpiperazin-1-yl)phenyl)amino)pyrimidin-4-yl)oxy)phenyl)-1,5-dimethyl-3-oxo-2-phenyl-2,3-dihydro-1H-pyrazole-4-carboxamide], half-maximal inhibition in series [1] (IC50) required 5.5 ± 0.8 nM. This molecule yielded an IC50 in series [2] of 25 ± 3.5 nM. In addition, in series [3], the half-life came to 51 min and the microsomal CLint amounted to 68 µL/min/mg.

`COCCN1CCN(CC(=O)Nc2ccc(Nc3nccc(Oc4ccc(NC(=O)C5(C(=O)Nc6ccc(F)cc6)CC5)cc4)n3)cc2)CC1` [compound 13k] displayed an IC50 in series [1] of 37.3 ± 10.6 nM. In addition, the IC50 in series [2] turned out to be 35.4 ± 10 nM. Besides, in series [3], the half-life is 38.4 min and the microsomal CLint amounted to 124 µL/min/mg.

As for `CC(=O)N1CCN(c2cccc(Nc3nccc(Oc4ccc(NC(=O)C5(C(=O)Nc6ccc(F)cc6)CC5)cc4)n3)c2)CC1` [compound 13e], in series [1], the “fold improvement over 18c, Mer IC50” value came out at 2.5 fold and the IC50 was 7.5 ± 1.6 nM. Also, in series [2], the “fold improvement over 18c, c-Met IC50” value was 4.5 fold and the IC50 is 7.5 ± 1.1 nM. Also, in series [3], the half-life is 30.4 min and the microsomal CLint was 114 µL/min/mg.

As to `CN1CCN(Cc2ccc(-c3cn([C@H]4CC[C@H](O)CC4)c4nc(NCCC5CC5)ncc34)cc2)CC1` [MRX2843], the brain/plasma ration in series [5] (CNS penetration) was 0.4.

Regarding `COCCNc1cccc(Nc2nccc(Oc3ccc(NC(=O)C4(C(=O)Nc5ccc(F)cc5)CC4)cc3)n2)c1` [compound 13b], the IC50 in series [1] was 24.3 ± 5.7 nM; in series [2], 25.9 ± 7.7 nM. Moreover, the half-life in series [3] is 38.3 min. Further, the microsomal CLint in series [3] was determined as 90.5 µL/min/mg.

Turning to `O=C(Nc1ccc(F)cc1)C1(C(=O)Nc2ccc(Oc3ccnc(Nc4cc(F)cc(F)c4)n3)cc2)CC1` [compound 13d, N-(4-((2-((3,5-difluorophenyl)amino)pyrimidin-4-yl)oxy)phenyl)-N-(4-fluorophenyl)cyclopropane-1,1-dicarboxamide], the concentration for half-maximal inhibition (IC50) in series [1] was 640 ± 82.2 nM; in series [2], 728 ± 131 nM.

As for `CN1CCN(CC(=O)Nc2ccc(Nc3nccc(Oc4ccc(NC(=O)C5(C(=O)Nc6ccc(F)cc6)CC5)cc4)n3)cc2)CC1` [compound 18c], in series [5] (previous study), the “oral bioavailability F” value is recorded as 2.84%.

As to `CC(=O)N1CCN(c2ccc(Nc3nccc(Oc4ccc(NC(=O)c5c(C)n(C)n(-c6ccccc6)c5=O)cc4)n3)cc2)CC1` [compound 17e, N-(4-((2-((4-(4-acetylpiperazin-1-yl)phenyl)amino)pyrimidin-4-yl)oxy)phenyl)-1,5-dimethyl-3-oxo-2-phenyl-2,3-dihydro-1H-pyrazole-4-carboxamide], the IC50 in series [1] was 69.8 ± 12.5 nM; in series [2] it was 236 ± 25.6 nM.
